Positions count from the first letter of the chain named.
Columns and labels:
[1] = target: T1, Androgen Receptor dual T878A/L702H mutant protein (Homo sapiens, UniProt P10275, L702H/T878A); experiment: Dual Mutant (T878A/L702H) Androgen Receptor Degradation Assay (HTRF, MDA-PCa-2b cells); type: cell-based; conditions: 18 h, 18 h incubation, read-out: mean asymptote max
T1 construct: host or cells: MDA-PCa-2b
T1 sequence (P10275 1-920 L702H/T878A): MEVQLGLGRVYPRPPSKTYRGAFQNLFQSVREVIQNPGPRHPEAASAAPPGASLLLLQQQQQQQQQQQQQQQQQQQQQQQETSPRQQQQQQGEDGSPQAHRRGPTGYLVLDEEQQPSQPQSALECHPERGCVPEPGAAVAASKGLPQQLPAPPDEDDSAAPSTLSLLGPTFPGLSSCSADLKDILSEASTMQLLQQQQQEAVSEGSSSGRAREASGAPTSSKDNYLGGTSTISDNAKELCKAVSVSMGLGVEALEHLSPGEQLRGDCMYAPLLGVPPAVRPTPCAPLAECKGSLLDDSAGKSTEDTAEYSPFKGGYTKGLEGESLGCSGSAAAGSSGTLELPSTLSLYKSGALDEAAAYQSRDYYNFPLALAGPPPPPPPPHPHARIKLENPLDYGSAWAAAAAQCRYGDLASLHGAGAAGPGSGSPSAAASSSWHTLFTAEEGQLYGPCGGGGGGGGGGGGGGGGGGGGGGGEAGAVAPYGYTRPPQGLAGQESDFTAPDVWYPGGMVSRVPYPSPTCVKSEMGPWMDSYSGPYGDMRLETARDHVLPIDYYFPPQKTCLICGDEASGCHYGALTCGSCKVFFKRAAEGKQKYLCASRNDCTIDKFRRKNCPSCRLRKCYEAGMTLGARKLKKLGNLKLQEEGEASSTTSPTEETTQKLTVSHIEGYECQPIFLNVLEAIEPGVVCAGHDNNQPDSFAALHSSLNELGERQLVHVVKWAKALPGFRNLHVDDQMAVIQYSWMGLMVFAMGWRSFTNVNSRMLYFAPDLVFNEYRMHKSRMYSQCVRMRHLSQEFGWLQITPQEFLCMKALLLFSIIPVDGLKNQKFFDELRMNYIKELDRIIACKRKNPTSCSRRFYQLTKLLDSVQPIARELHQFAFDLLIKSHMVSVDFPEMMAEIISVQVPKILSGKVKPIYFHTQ
Method: Degradation of Androgen Receptor dual T878A/L702H mutant protein in human MDA-PCa-2b (ATCC) cells treated with PROTACs was quantified using the HTRF Human Androgen Receptor Detection Kit (PerkinElmer) in 384 well assay plate format. 10 mM DMSO (Sigma-Aldrich) stock solutions of PROTACs were prepared and diluted across an 11 concentration, 3-fold increment range, and 25 nL dispensed into a white opaque bottomed 384 well assay plate (Thermofisher) using an acoustic ECHO dispenser (Labcyte). Cells were cultured in growth medium (BRFF—HPC-1 (Athena ES) supplemented with 20% FBS (Gibco), penicillin 50U/mL and streptomycin 50 μg/mL (Gibco, #15140-122)) in collagen I or poly-D-lysine coated T175 flasks (Corning, #356487 or #356539, respectively). For the assay, cells were harvested from the flask, centrifuged at 200 g for 5 min and then resuspended in the growth medium. 25 μl of cell suspension containing 10,000 cells was dispensed into each well of the assay plate containing the test compounds, which was then incubated for 18 h at 37° C./5% CO2. Control wells were included on each assay plate, with assay medium without cells being the no AR remaining 100% effect control, and cells treated with DMSO vehicle only, without PROTAC, the 0% effect control. After 18 h incubation 8 μl of supplemented lysis buffer from HTRF kit was added to each well and the plate shaken at 500 rpm for 1 h at room temperature. 8 μl of antibody mix in Detection buffer from HTRF kit was added to each well and the plate was incubated for 2 h in dark at mom temperature. The fluorescence was measured at both 620 nm and 665 nm using an excitation wavelength of 337 nm with a PHERAstar microplate reader (BMG Labtech) and the % AR protein remaining in each well was calculated by normalising the HTRF ratio (665 nm signal/620 nm signal) value to the control wells mentioned above. Parameters corresponding to the potency and efficacy estimates of the PROTACs were obtained from these normalised values using curve fitting software (IDBS ActivityBase). These included the DC50 and the Dmax estimates. Two versions of the DC50, called relative DC50 and absolute DC50, were typically generated. These are the inflection point of a fitted 4 parameter sigmoidal response curve and the interpolated concentration of PROTAC corresponding to 50% of the protein being degraded, respectively. The Dmax parameter was the maximum experimentally observed degradation and the asymptote max parameter the fitted response curve asymptote maximum.

[2] = target: T2, Androgen Receptor protein in human LnCaP cells (Homo sapiens, UniProt P10275, T878A); experiment: Androgen Receptor Degradation Assay (Nano-Glo HiBiT, LnCaP cells); type: cell-based; conditions: 18 h, HiBiT-tagged AR LnCaP cells, 18 h incubation, fitted curve asymptote maximum of degradation, read-out: mean asymptote max
T2 construct: the AR gene was modified, using CRISPR/Cas9 editing, so the expressed AR protein included an 11 amino acid HiBiT tag; endogenous in cells; host or cells: clonal LnCaP derived cell line, endogenous AR gene edited by CRISPR/Cas9
T2 sequence (P10275 1-920 T878A): T1 sequence (P10275 1-920 L702H/T878A) with H702L
Method: Degradation of Androgen Receptor protein in human LnCaP cells treated with PROTACs was quantified using the Nano-Glo® HiBiT Lytic Detection System (Promega) in 384 well assay plate format. A clonal LnCaP derived cell line was first established in which the AR gene was modified, using CRISPR/Cas9 editing, so the expressed AR protein included an 11 amino acid HiBiT tag at its amino-terminus. 10 mM DMSO stock solutions of PROTACs were prepared and diluted across an 11 concentration, 3 fold increment range, and 25 nL dispensed into a white opaque bottomed 384 well assay plate (Thermofisher) using an acoustic ECHO dispenser (Labcyte). Cells were grown in cell culture medium (RPMI 1640 supplemented with 15% FBS, penicillin 50U/mL and streptomycin 50 ug/mL (Thermofisher)). For the assay, cells were detached from flask and resuspended with assay medium (FluoroBrite™ DMEM supplemented with 10% heat inactivated FBS, penicillin 50U/mL and streptomycin 50 ug/mL (Thermofisher)). The cell suspension was centrifuged at 400 g for 5 min and the pellet resuspended in assay medium. 25 μL of cell suspension containing 10,000 cells was dispensed into each well of the assay plate containing a serial dilution of test compounds, which was then incubated for 18 h at 37° C./5% CO2. Control wells were included on each assay plate, with assay medium without cells being the no AR remaining 100% effect control, and cells treated with DMSO vehicle only, without PROTAC, the 0% effect control. 25 μL of Nano-Glo® HiBiT lysis buffer supplemented with LgBiT protein and Nano-Glo® substrate (Promega) was added to each well and the plate shaken at 500 rpm for 10 min at room temperature. The intensity of luminescence was measured using a PHERAstar microplate reader (BMG Labtech) and the % AR protein remaining in each well calculated by normalising the raw luminescence value to the above control wells. Parameters corresponding to the potency and efficacy estimates of the PROTACs were obtained from these normalised luminescence values using software (IDBS ActivityBase). These included the DC50 (concentration at which 50% of protein was degraded in M) and the Dmax (maximal degradation, in %) estimates. Two versions of the DC50, called relative DC50 and absolute DC50, were generated. These are the inflection point of a fitted 4 parameter sigmoidal response curve and the interpolated concentration of PROTAC corresponding to 50% of the protein being degraded, respectively. The corresponding pDC50 is reported as −log10(relative […]). The Dmax parameter was the maximum experimentally observed degradation and the asymptote max parameter the fitted response curve asymptote maximum.

| Dmax [1] [%] | Dmax [2] [%] | Compound |
| --- | --- | --- |
| ≥ 50 | – | CC1(C)[C@H](NC(=O)c2ccc(N3CCC(CN4CC[C@H](n5ncc6c(N7CCC(=O)NC7=O)cccc65)[C@H](F)C4)CC3)c(F)c2)C(C)(C)[C@H]1Oc1ccc(C#N)c(Cl)c1 [Example 14, N-((1r,3r)-3-(3-Chloro-4-cyanophenoxy)-2,2,4,4-tetramethylcyclobutyl)-4-(4-(((3R,4S)-4-(4-(2,4-dioxotetrahydropyrimidin-1(2H)-yl)-1H-indazol-1-yl)-3-fluoropiperidin-1-yl)methyl)piperidin-1-yl)-3-fluorobenzamide] |
| ≥ 50 | – | COc1cc(O[C@H]2C(C)(C)[C@H](NC(=O)c3ccc(N4CCC(CN5CCC(n6ncc7c(N8CCC(=O)NC8=O)cccc76)CC5)CC4)c(F)c3)C2(C)C)ccc1C#N [Example 21, N-((1r,3r)-3-(4-Cyano-3-methoxyphenoxy)-2,2,4,4-tetramethylcyclobutyl)-4-(4-((4-(4-(2,4-dioxotetrahydropyrimidin-1(2H)-yl)-1H-indazol-1-yl)piperidin-1-yl)methyl)piperidin-1-yl)-3-fluorobenzamide] |
| ≥ 50 | – | CC1(C)[C@H](NC(=O)c2cc(F)c(N3CCC(CN4CCC(n5ncc6c(N7CCC(=O)NC7=O)cccc65)CC4)CC3)cc2F)C(C)(C)[C@H]1Oc1ccc(C#N)c2ncccc12 [Example 35, N-((1r,3r)-3-((8-Cyanoquinolin-5-yl)oxy)-2,2,4,4-tetramethylcyclobutyl)-4-(4-((4-(4-(2,4-dioxotetrahydropyrimidin-1(2H)-yl)-1H-indazol-1-yl)piperidin-1-yl)methyl)piperidin-1-yl)-2,5-difluorobenzamide] |
| – | ≥ 50 | COc1cc(O[C@H]2C(C)(C)[C@H](NC(=O)c3ccc(N4CCC(CN5CCC(n6ncc7c(N8CCC(=O)NC8=O)ccnc76)CC5)CC4)c(F)c3)C2(C)C)ccc1C#N [Example 19, N-((1r,3r)-3-(4-Cyano-3-methoxyphenoxy)-2,2,4,4-tetramethylcyclobutyl)-4-(4-((4-(4-(2,4-dioxotetrahydropyrimidin-1(2H)-yl)-1H-pyrazolo[3,4-b]pyridin-1-yl)piperidin-1-yl)methyl)piperidin-1-yl)-3-fluorobenzamide] |
| ≥ 50 | – | COc1cc(O[C@H]2C(C)(C)[C@H](NC(=O)c3ccc(N4CCC(CN5CCC(n6ncc7c(N8CCC(=O)NC8=O)c(F)ccc76)CC5)CC4)c(F)c3)C2(C)C)ccc1C#N [Example 25, N-((1r,3r)-3-(4-Cyano-3-methoxyphenoxy)-2,2,4,4-tetramethylcyclobutyl)-4-(4-((4-(4-(2,4-dioxotetrahydropyrimidin-1(2H)-yl)-5-fluoro-1H-indazol-1-yl)piperidin-1-yl)methyl)piperidin-1-yl)-3-fluorobenzamide] |

— patent US12577231B2, “Androgen receptor PROTACS” (GlaxoSmithKline Intellectual Property Development Limited, priority 2023, dated 2026)
